The record followed here is patent US20240261218A1, “BIODEGRADABLE MUCOADHESIVE PHARMACEUTICAL FORMULATIONS AND METHODS THEREOF” (THE TEXAS A&M UNIVERSITY SYSTEM, priority 2021, published 2024).

Where “and” joins values, the source holds several entries; their conditions need not be identical. Equal entries are not always repeated. Entries after “also recorded” stand apart in the source; their conditions may differ. Where two headings read alike, the source gives them in different places.

Series [1] deals with Dysplastic oral keratinocyte (DOK) cells. Description: MTT growth inhibition (IC50) in DOK cells. It is filed as cell-based. The settings on record: MTT assay; for IC50: read-out: IC50 concentration. An excerpt: • 1. Animal care and treatment. […] Combination index (CI) and isoborogram. […] Pharmaceutical formulation. […] LC-MS/MS.
On the technique in general: Formazan colour is commonly taken as a measure of viable cells.

The nature of series [2]: Stability of OXP in solutions. The format is physicochemical. An excerpt: These chloride derivatives of OXP are not detectable by current available assays.
Series [3] is described as follows: In vivo active ingredient release: tongue tissue and plasma amounts in healthy rats. Details: species or system rat. The protocol:
The instant example analyzes exemplary pharmaceutical formulations applied to the tongue of healthy rats for different time periods up to 4 hours. Concentrations of mycophenolic acid and oxaliplatin in tongue tissues were measured at the corresponding times and up to 12 hours from the beginning of the formulation application in rats. The following are groups of rats that were studied: • Group #1: Formulation applied for 0.5 hour and rat tongues were harvested for drug analysis. N=8 rats. • Group #2: Formulation applied for 1 hour and rat tongues were harvested for drug analysis. N=13 rats. • Group #3: Formulation applied for 2 hours and rat tongues were harvested for drug analysis. N=13 rats. • Group #4: Formulation applied for 3 hours and rat tongues were harvested for drug analysis. N=12 rats. • Group #5: Formulation applied for 4 hours and rat tongues were harvested for drug analysis. N=6 rats. • Group #6: Formulation applied for 4 hours and removed from the rat. At 8 hours after the start of the Formulation application, rat tongues were harvested for drug analysis. N=7 rats. • Group #7: Formulation applied for 4 hours and removed from the rat. At 12 hours after the start of the Formulation application, rat tongues were harvested for drug analysis. N=9 rats.
• 1. Animal care and treatment. […] Combination index (CI) and isoborogram. […] Pharmaceutical formulation.

Series [4] in a line: Plasma concentrations before the fifth dose in 4NQO-treated rats. The format is in vivo, rat.

`O=C1[O][Pt]2([NH][C@@H]3CCCC[C@H]3[NH]2)[O]C1=O` (relative stereo) [OXP, [SP-4-2-(1R-trans)]-(1,2-cyclohexanediamine-N,N′)[ethanedioato(2-)-O,O′]platinum]: the IC50 in series [1] is 1670 nM. Also, the “stability of OXP in chloride-containing solutions” value in series [2] (NaCl (0.9%, 3%), KCl (3%)) was “converted by chloride in a time and concentration-dependent manner”. In series [2] (NaPi 0.2M, glucose 5%, H2O, PAA, DOPA, CMC), the “stability of OXP in NaPi, glucose, or H2O solutions and solutions containing the bioadhesive material components” value is listed as “remains stable”. In addition, the “oxaliplatin in rat tongue as % of the formulation active ingredient load” value in series [3] (0.5-hour formulation application group) is on record as “about 21%”. Further, in series [3] (any groups), the oxaliplatin in plasma result is “no detectable oxaliplatin in plasma”. Further, the “Plasma concentration of oxaliplatin immediately before the fifth dose application” value in series [4] (4NQO induced rats, daily 2-hours supra-lingual formulation (9,040 ng MPS, 680 ng OXP)) is “not detectible”; in series [4] (4NQO induced rats, daily 2-hours supra-lingual formulation (9,040 ng MPS, 680 ng OXP), listed as oxaliplatin) it was “No detectable levels; also recorded: Not detectible (ND)”.
In the case of `COc1c(C)c2c(c(O)c1C/C=C(\C)CCC(=O)O)C(=O)OC2` [MPA], in series [1] (Keratinocyte), the IC50 came out at 13300 nM.
With `O=c1[nH]cc(F)c(=O)[nH]1` [5-FU], the IC50 concentration in series [1] was determined as 3.33 µg/mL.
In the case of `COc1c(C)c2c(c(O)c1C/C=C(\C)CCC(=O)O)C(=O)OC2` [MPS, mycophenolate], the “MPS detected in rat tongue as % of the formulation drug load” value in series [3] (0.5 hour supra-lingual application) is reported as “about 55%”. In addition, the “plasma MPS concentrations” value in series [3] (all groups) is listed as “less than 10 ng/mL”. In addition, in series [3] (male, Sprague-Dawley, rat, plasma, healthy rats, applied 4 hours, sampled 4 hours after removal (8 hours from beginning), mean ± SD), the concentration at 8 h was found to be 6.5 ± 1.3 ng/mL. In series [3] (male, Sprague-Dawley, rat, plasma, healthy rats, applied 4 hours, sampled 8 hours after removal (12 hours from beginning), mean ± SD), the concentration at 12 h was 4.26 ± 0.71 ng/mL. Also, the concentration at 1 h in series [3] (male, Sprague-Dawley, rat, plasma, healthy rats, supra-lingual formulation, 1 hour of application, mean ± SD) turned out to be 0.96 ± 0.26 ng/mL. In series [3] (male, Sprague-Dawley, rat, plasma, healthy rats, supra-lingual formulation, 2 hours of application, mean ± SD), the concentration at 2 h stood at 2.09 ± 0.76 ng/mL. The concentration at 3 h in series [3] (male, Sprague-Dawley, rat, plasma, healthy rats, supra-lingual formulation, 3 hours of application, mean ± SD) came to 2.76 ± 0.68 ng/mL. Besides, the concentration at 4 h in series [3] (male, Sprague-Dawley, rat, plasma, healthy rats, supra-lingual formulation, 4 hours of application, mean ± SD) came to 1.76 ± 0.53 ng/mL. Besides, in series [4] (4NQO induced rats, daily 2-hours supra-lingual formulation (9,040 ng MPS, 680 ng OXP), individual rats, steady-state trough), the “Plasma concentration of mycophenolate immediately before the fifth dose application” value is 8.24 ng/mL and 6.84 ng/mL and 3.83 ng/mL and 2.54 ng/mL and 4.82 ng/mL and 2.37 ng/mL and 5.18 ng/mL. The “plasma concentration of MPS right before the placement of the last (fifth) formulation, group value” in series [4] (group treated with OXP-MPS formulations, 2 hours × 5 days) is reported as 4.52 (+2.23) ng/ml.
As to `CC(=O)O[C@H]1C(=O)[C@@]2(C)[C@H]([C@H](OC(=O)c3ccccc3)[C@]3(O)C[C@H](OC(=O)[C@H](O)[C@@H](NC(=O)c4ccccc4)c4ccccc4)C(C)=C1C3(C)C)[C@]1(OC(C)=O)CO[C@@H]1C[C@@H]2O` [paclitaxel], the IC50 in series [1] (Keratinocyte) was 0.41 nM.
